{"source": "ChEMBL document CHEMBL5579815", "about": "“Novel angiogenesis inhibitors with superoxide anion radical amplification effect: Surmounting the Achilles' heels of angiogenesis inhibitors and photosensitizers” (Eur J Med Chem, 2024)", "key": {"SK-MEL-28 [1]": {"system": "SK-MEL-28", "assay": "(§1) Induction of apoptosis in human SK-MEL-28 cells assessed as viable cells at 2 uM preincubated for 24 hrs under normoxic condition followed by media removal and irradiated with 650 nm 10 mW/cm2 light for 15 mins under normoxic condition by Annexin V-FITC/propidium iodide staining based flow cytometry (reference value: 93.62%)", "assay_type": "functional", "conditions": "SK-MEL-28, light or radiation study, read-out: Activity"}, "SK-MEL-28 [2]": {"system": "SK-MEL-28", "assay": "as §1, with “as late apoptotic” for “as viable”, “at 0.5” for “at 2”, “value: 1.95%)” for “value: 93.62%)”", "assay_type": "functional"}, "SK-MEL-28 [3]": {"system": "SK-MEL-28", "assay": "as §1, with “as late apoptotic” for “as viable”, “at 1” for “at 2”, “under hypoxic” for “under normoxic”, “value: 1.95%)” for “value: 93.62%)”", "assay_type": "functional"}, "SK-MEL-28 [4]": {"system": "SK-MEL-28", "assay": "as §1, with “as necrotic” for “as viable”, “at 1” for “at 2”, “value: 2.63%)” for “value: 93.62%)”", "assay_type": "functional"}, "EA.hy 926": {"system": "EA.hy 926", "assay": "(§2) Antiangiogenic activity in human EA.hy 926 cells assessed as reduction in cell viability at 0.008 to 1 uM preincubated for 24 hrs under normoxic condition followed by media removal and irradiated with 650 nm 10 mW/cm2 light for 15 mins under normoxic condition prior to media replacement and measured after 24 hrs by MTT assay", "assay_type": "functional, cell-based", "conditions": "dose 0.008-1 µM"}, "SK-MEL-28 [5]": {"system": "SK-MEL-28", "assay": "as §1, with “as late apoptotic” for “as viable”, “at 0.5” for “at 2”, “under hypoxic” for “under normoxic”, “value: 1.95%)” for “value: 93.62%)”", "assay_type": "functional"}, "[6]": {"assay": "Drug uptake in HEK293 cells at 1 uM measured after 24 hrs by flow cytometry", "assay_type": "ADME, cell-based", "conditions": "human, hek293, 24 h"}, "SK-MEL-28 [7]": {"system": "SK-MEL-28", "assay": "Induction of apoptosis in human SK-MEL-28 cells preincubated for 24 hrs under normoxic condition followed by media removal and irradiated with 650 nm 10 mW/cm2 light for 15 mins under normoxic condition by Annexin V-FITC/propidium iodide staining based flow cytometry", "assay_type": "functional, cell-based", "conditions": "dose 0.5-2 µM"}, "SK-MEL-28 [8]": {"system": "SK-MEL-28", "assay": "as §1, with “as necrotic” for “as viable”, “at 0.5” for “at 2”, “under hypoxic” for “under normoxic”, “value: 2.63%)” for “value: 93.62%)”", "assay_type": "functional"}, "SK-MEL-28 [9]": {"system": "SK-MEL-28", "assay": "as §1, with “late apoptotic” for “viable”, “1.95%)” for “93.62%)”", "assay_type": "functional"}, "SK-MEL-28 [10]": {"system": "SK-MEL-28", "assay": "as §1, with “as early apoptotic” for “as viable”, “at 0.5” for “at 2”, “value: 1.8%)” for “value: 93.62%)”", "assay_type": "functional"}, "SK-MEL-28 [11]": {"system": "SK-MEL-28", "assay": "Induction of ROS generation in human SK-MEL-28 cells at 1 uM incubated for 24 hrs under hypoxic condition prior to DHE addition for 30 mins followed by media removal and irradiated with 650 nm 10 mW/cm2 light for 15 mins under hypoxic condition by DAPI staining based fluorescence microscopy", "assay_type": "functional, cell-based"}, "[12]": {"assay": "Induction of ROS generation in methanol solution assessed as increase in singlet oxygen level by measuring reduction in ABDA absorption peak at 10 uM irradiated with 650 nm 10 mW/cm2 light for upto 9 mins by ABDA probe based UV-vis absorption spectra analysis", "assay_type": "functional"}, "[13]": {"assay": "Induction of ROS generation in methanol solution assessed as increase in superoxide anion radical level by measuring fold increase in DHR123 fluorescence intensity at 10 uM irradiated with 650 nm 10 mW/cm2 light for upto 15 mins by DHR123 probe based fluorescence spectra analysis relative to control", "assay_type": "functional"}, "[14]": {"assay": "Drug uptake in human SK-MEL-28 cells at 1 uM measured after 24 hrs by flow cytometry", "assay_type": "ADME, cell-based", "conditions": "sk-mel-28, 24 h"}, "SK-MEL-28 [15]": {"system": "SK-MEL-28", "assay": "as §1, with “late apoptotic” for “viable”, “hypoxic” for “normoxic”, “1.95%)” for “93.62%)”", "assay_type": "functional"}, "SK-MEL-28 [16]": {"system": "SK-MEL-28", "assay": "as §1, with “at 1” for “at 2”", "assay_type": "functional", "conditions": "SK-MEL-28, light or radiation study, read-out: Activity"}, "[17]": {"assay": "Dark toxicity in human SK-MEL-28 cells assessed as reduction in cell viability by MTT assay", "assay_type": "cell-based"}, "SK-MEL-28 [18]": {"system": "SK-MEL-28", "assay": "as §1, with “early apoptotic” for “viable”, “hypoxic” for “normoxic”, “1.8%)” for “93.62%)”", "assay_type": "functional"}, "SK-MEL-28 [19]": {"system": "SK-MEL-28", "assay": "as §1, with “at 0.5” for “at 2”", "assay_type": "functional", "conditions": "SK-MEL-28, light or radiation study, read-out: Activity"}, "U-87 MG": {"system": "U-87 MG", "assay": "as §2, with “Cytotoxicity against” for “Antiangiogenic activity in”, “U87” for “EA.hy 926”, “hypoxic” for “normoxic”", "assay_type": "functional, cell-based", "conditions": "U-87MG ATCC, dose 0.008-1 µM"}, "SK-MEL-28 [20]": {"system": "SK-MEL-28", "assay": "as §1, with “as early apoptotic” for “as viable”, “at 1” for “at 2”, “under hypoxic” for “under normoxic”, “value: 1.8%)” for “value: 93.62%)”", "assay_type": "functional"}, "A549 [21]": {"system": "A549", "assay": "as §2, with “Cytotoxicity against” for “Antiangiogenic activity in”, “A549” for “EA.hy 926”, “hypoxic” for “normoxic”", "assay_type": "functional, cell-based", "conditions": "dose 0.008-1 µM"}, "[22]": {"assay": "Drug uptake in human EA.hy 926 cells at 1 uM measured after 24 hrs by flow cytometry", "assay_type": "ADME, cell-based", "conditions": "ea.hy 926, 24 h"}, "SK-MEL-28 [23]": {"system": "SK-MEL-28", "assay": "as §1, with “necrotic” for “viable”, “hypoxic” for “normoxic”, “2.63%)” for “93.62%)”", "assay_type": "functional"}, "A549 [24]": {"system": "A549", "assay": "as §2, with “Cytotoxicity against” for “Antiangiogenic activity in”, “A549” for “EA.hy 926”", "assay_type": "functional, cell-based", "conditions": "dose 0.008-1 µM"}, "HEK293": {"system": "HEK293", "assay": "Dark toxicity in HEK293 cells assessed as reduction in cell viability at 0.078 to 10 uM by MTT assay", "assay_type": "cell-based", "conditions": "human, hek293, 10 µM; dose 0.078-10 µM"}, "SK-MEL-28 [25]": {"system": "SK-MEL-28", "assay": "as §2, with “Cytotoxicity against” for “Antiangiogenic activity in”, “SK-MEL-28” for “EA.hy 926”, “viability” for “viability at 0.008 to 1 uM”", "assay_type": "functional, cell-based", "conditions": "SK-MEL-28, light or radiation study"}, "SK-MEL-28 [26]": {"system": "SK-MEL-28", "assay": "as §2, with “Cytotoxicity against” for “Antiangiogenic activity in”, “SK-MEL-28” for “EA.hy 926”, “viability” for “viability at 0.008 to 1 uM”, “hypoxic” for “normoxic”", "assay_type": "functional, cell-based", "conditions": "SK-MEL-28, light or radiation study"}, "SK-MEL-28 [27]": {"system": "SK-MEL-28", "assay": "as §1, with “at 1” for “at 2”, “under hypoxic” for “under normoxic”", "assay_type": "functional", "conditions": "SK-MEL-28, light or radiation study, read-out: Activity"}, "[28]": {"assay": "Induction of ROS generation in methanol solution assessed as reduction in DPBF absorption peak at 10 uM irradiated with 650 nm 10 mW/cm2 light for upto 9 mins by DPBF probe based UV-vis absorption spectra analysis", "assay_type": "functional"}, "SK-MEL-28 [29]": {"system": "SK-MEL-28", "assay": "as §1, with “hypoxic” for “normoxic”", "assay_type": "functional", "conditions": "SK-MEL-28, light or radiation study, read-out: Activity"}}, "note": "Active and inactive are the calls of the source. The calls are words filed in the database; no cut-off is given here.", "data": [{"compound": "CCN(CC)c1ccc2nc3c4ccccc4/c(=N\\CCCCCCNC(=O)c4cc(Oc5ccc(NC(=O)Nc6ccc(Cl)c(C(F)(F)F)c6)cc5)ccn4)cc-3sc2c1", "values": [{"measurement": "viability at 2 µM", "setting": "SK-MEL-28 [1]", "value": 27.2, "unit": "%"}, {"measurement": "Activity", "setting": "SK-MEL-28 [2]", "value": 2.86, "unit": "%"}, {"measurement": "Activity", "setting": "SK-MEL-28 [3]", "value": 7.57, "unit": "%"}, {"measurement": "Activity", "setting": "SK-MEL-28 [4]", "value": 23.01, "unit": "%"}, {"measurement": "Activity", "setting": "EA.hy 926", "value": "Active"}, {"measurement": "Activity", "setting": "SK-MEL-28 [5]", "value": 7.05, "unit": "%"}, {"measurement": "Drug uptake", "setting": "[6]", "value": "Active"}, {"measurement": "Activity", "setting": "SK-MEL-28 [7]", "value": "Dose-Dependent Effect"}, {"measurement": "Activity", "setting": "SK-MEL-28 [8]", "value": 11.5, "unit": "%"}, {"measurement": "Activity", "setting": "SK-MEL-28 [9]", "value": 26.72, "unit": "%"}, {"measurement": "Activity", "setting": "SK-MEL-28 [10]", "value": 12.86, "unit": "%"}, {"measurement": "Activity", "setting": "SK-MEL-28 [11]", "value": "Active"}, {"measurement": "Activity", "setting": "[12]", "value": "inactive"}, {"measurement": "fold change (FC)", "setting": "[13]", "value": 6.6}, {"measurement": "Drug uptake", "setting": "[14]", "value": "Active"}, {"measurement": "Activity", "setting": "SK-MEL-28 [15]", "value": 17.67, "unit": "%"}, {"measurement": "viability at 1 µM", "setting": "SK-MEL-28 [16]", "value": 64.6, "unit": "%"}, {"measurement": "IC50", "setting": "[17]", "value": "> 10", "unit": "µM"}, {"measurement": "Activity", "setting": "SK-MEL-28 [18]", "value": 10.55, "unit": "%"}, {"measurement": "viability at 0.5 µM", "setting": "SK-MEL-28 [19]", "value": 73.2, "unit": "%"}, {"measurement": "Activity", "setting": "U-87 MG", "value": "Active"}, {"measurement": "Activity", "setting": "SK-MEL-28 [20]", "value": 3.97, "unit": "%"}, {"measurement": "Activity", "setting": "A549 [21]", "value": "Active"}, {"measurement": "Drug uptake", "setting": "[22]", "value": "Active"}, {"measurement": "Activity", "setting": "SK-MEL-28 [23]", "value": 18.77, "unit": "%"}, {"measurement": "Activity", "setting": "A549 [24]", "value": "Active"}, {"measurement": "Activity", "setting": "HEK293", "value": "Non-Toxic"}, {"measurement": "IC50", "setting": "SK-MEL-28 [25]", "value": 0.1, "unit": "µM"}, {"measurement": "IC50", "setting": "SK-MEL-28 [26]", "value": 0.158, "unit": "µM"}, {"measurement": "viability at 1 µM", "setting": "SK-MEL-28 [27]", "value": 69, "unit": "%"}, {"measurement": "Activity", "setting": "[28]", "value": "Active"}, {"measurement": "viability at 2 µM", "setting": "SK-MEL-28 [29]", "value": 53, "unit": "%"}]}]}
